Reference: patent US20060030585A1, “Tricyclic delta-opioid modulators” (priority 2004, published 2006)
Read-outs that look alike come from different tables or passages of the source.

What was measured:
delta opioid receptor = delta opioid receptor (Rattus norvegicus, UniProt P33533); assay: Rat brain delta opioid receptor binding assay ([3H]DPDPE); conditions: Rat delta opioid receptor binding constant, rat forebrain membranes, ~4 nM [3H]DPDPE
In short: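 Forebrain membranes from male Sprague Dawley rats in 50 mM Tris HCl pH 7.4 with 5 mM MgCl2, incubated with ~4 nM [3H]DPDPE for 2.5 h at 25° C., then filtered and counted. Single concentrations give % inhibition of specific binding; concentration ranges give Ki.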

mu opioid receptor = mu opioid receptor (Rattus norvegicus, UniProt P33535); assay: Rat brain mu opioid receptor binding assay ([3H]DAMGO); conditions: Rat mu opioid receptor binding constant, rat forebrain membranes, ~0.8 nM [3H]DAMGO
mu opioid receptor, sequence (P33535 whole entry): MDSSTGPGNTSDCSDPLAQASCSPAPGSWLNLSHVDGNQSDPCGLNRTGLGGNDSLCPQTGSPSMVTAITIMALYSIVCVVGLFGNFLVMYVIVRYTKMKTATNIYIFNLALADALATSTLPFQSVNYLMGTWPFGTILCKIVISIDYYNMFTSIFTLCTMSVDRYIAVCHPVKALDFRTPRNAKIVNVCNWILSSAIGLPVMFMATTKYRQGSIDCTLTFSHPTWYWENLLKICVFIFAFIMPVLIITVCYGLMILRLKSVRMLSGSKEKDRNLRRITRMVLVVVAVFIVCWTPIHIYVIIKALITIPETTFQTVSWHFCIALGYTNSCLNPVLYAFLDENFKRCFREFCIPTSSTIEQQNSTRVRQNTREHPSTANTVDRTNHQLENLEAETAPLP

[1] = molecular target: T1, delta opioid receptor (NG108-15 cell membranes) (Mus musculus, UniProt P32300); assay: [35S]GTPγS binding assay in NG108-15 cell membranes (delta opioid); type: biochemical; conditions: agonist-stimulated [35S]GTPγS binding
T1 construct: NG108-15 cell membranes were purchased from Applied Cell Sciences (Rockville, Md.); host or cells: NG108-15 cell membranes (purchased)
T1 sequence (P32300 whole entry): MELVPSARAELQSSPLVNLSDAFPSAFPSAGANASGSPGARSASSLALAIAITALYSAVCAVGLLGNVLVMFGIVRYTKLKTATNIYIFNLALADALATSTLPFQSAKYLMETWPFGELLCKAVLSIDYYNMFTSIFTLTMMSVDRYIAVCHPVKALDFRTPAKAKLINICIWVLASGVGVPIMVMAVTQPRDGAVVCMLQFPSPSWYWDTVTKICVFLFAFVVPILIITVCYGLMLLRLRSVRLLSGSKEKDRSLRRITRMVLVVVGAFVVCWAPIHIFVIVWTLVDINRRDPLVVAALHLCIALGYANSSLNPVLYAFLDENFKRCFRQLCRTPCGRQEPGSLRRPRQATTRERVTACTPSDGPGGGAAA
Experimental: [^35S]GTPγS Binding Assay in NG108-15 Cell Membranes (delta opioid)
Methods: NG108-15 cell membranes were purchased from Applied Cell Sciences (Rockville, Md.). 8 mg/mL of membrane protein suspended in 10 mM TRIS-HCl pH 7.2, 2 mM EDTA, 10% sucrose. Membranes were maintained at 4-8° C. A 1 mL volume of membranes was added into 10 mL cold binding assay buffer. The assay buffer contained 50 mM Tris, pH 7.6, 5 mM MgCl2, 100 mM NaCl, 1 mM DTT and 1 mM EGTA. The membrane suspension was homogenized twice with a Polytron, and centrifuged at 3000 rpm for 10 min. The supernatant was then centrifuged at 18,000 rpm for 20 min. Ten mL assay buffer was added into the pellet containing tube. The pellet and buffer were mixed with a Polytron.
Incubation procedure: The pellet membranes (75 μg/mL) were preincubated with SPA (10 mg/mL) at 25° C. for 45 min in the assay buffer. […] GTPγS in the same Tris buffer containing 100 μM GDP in total volume of 200 μL. Increasing concentrations of receptor agonists were used to stimulate [35S]-GTPγS binding. The basal binding was tested in the absence of agonists and non-specific binding was tested in the presence of 10 μM unlabeled GTPγS. The data were analyzed on a Packard Top Count.
% of Basal=(stimulated−non specific)*100/(basal−non specific). EC50 value values were calculated using GraphPad Prism.

[2] = molecular target: T2, hMOR (CHO-hMOR cell membranes) (Homo sapiens, UniProt P35372); assay: [35S]GTPγS binding assay in CHO-hMOR cell membranes; type: biochemical
T2 construct: host or cells: CHO cells expressing hMOR (purchased membranes)
T2 sequence (P35372 whole entry): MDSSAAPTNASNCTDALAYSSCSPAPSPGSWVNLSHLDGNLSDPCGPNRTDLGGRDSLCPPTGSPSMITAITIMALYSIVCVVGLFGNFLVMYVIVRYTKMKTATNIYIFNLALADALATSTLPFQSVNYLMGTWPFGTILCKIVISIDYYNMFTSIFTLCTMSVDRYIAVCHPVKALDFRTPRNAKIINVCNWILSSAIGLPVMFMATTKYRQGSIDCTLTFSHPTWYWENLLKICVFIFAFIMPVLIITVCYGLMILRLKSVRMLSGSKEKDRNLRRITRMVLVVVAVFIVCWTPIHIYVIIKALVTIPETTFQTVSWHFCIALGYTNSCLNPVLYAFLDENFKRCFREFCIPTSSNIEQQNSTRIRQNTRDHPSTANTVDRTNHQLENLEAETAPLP
Experimental: [^35]GTPγS Binding Assays in CHO-hMOR Cell Membranes
Methods: CHO-hMOR cell membranes were purchased from Receptor Biology, Inc. (Baltimore, Md.). About 10 mg/mL of membrane protein was suspended in 10 mM TRIS-HCl pH 7.2, 2 mM EDTA, 10% sucrose, and the suspension kept on ice. A 1 mL volume of membranes was added to 15 mL cold binding assay buffer containing 50 mM HEPES, pH 7.6, 5 mM MgCl2, 100 mM NaCl, 1 mM DTT and 1 mM EDTA. The membrane suspension was homogenized with a Polytron and centrifuged at 3,000 rpm for 10 min. The supernatant was then centrifuged at 18,000 rpm for 20 min. The pellet was resuspended in 10 mL assay buffer with a Polytron. The membranes were preincubated with wheat germ agglutinin coated SPA beads (Amersham) at 25° C. for 45 min in the assay buffer. The SPA bead (5 mg/mL) coupled membranes (10 μg/mL) were then incubated with 0.5 nM [^35S]GTPγS in the assay buffer. […] A range of concentrations of receptor agonist was used to stimulate [35S]GTPγS binding. Both basal and non-specific binding was tested in the absence of agonist; non-specific binding determination included 10 μM unlabeled GTPγS.
Compounds were tested for function as antagonists by evaluating their potential to inhibit agonist-stimulated GTPγS binding. Radioactivity was quantified on a Packard TopCount. The following parameters were calculated: [formula] [formula]
EC50 values were calculated using GraphPad Prism.

[3] = NG108-15 cell membranes, read-out: DOR GTPγS EC50
[4] = CHO-hMOR cell membranes, [35S]GTPγS binding, read-out: hMOR GTPγS EC50

delta opioid receptor, sequence (P33533 whole entry): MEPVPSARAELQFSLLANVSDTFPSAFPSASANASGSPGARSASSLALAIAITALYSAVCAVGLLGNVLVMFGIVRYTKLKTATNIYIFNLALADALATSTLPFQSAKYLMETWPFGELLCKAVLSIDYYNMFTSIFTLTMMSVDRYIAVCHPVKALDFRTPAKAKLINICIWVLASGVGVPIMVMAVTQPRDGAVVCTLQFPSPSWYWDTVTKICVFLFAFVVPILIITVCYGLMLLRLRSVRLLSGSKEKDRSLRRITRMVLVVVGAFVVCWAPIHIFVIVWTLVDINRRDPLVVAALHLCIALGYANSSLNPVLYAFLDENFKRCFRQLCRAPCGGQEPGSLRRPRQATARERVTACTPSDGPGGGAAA

Structure (SMILES)	Ki (delta opioid receptor; read-out: DOR Ki) [nM]	Ki (mu opioid receptor; read-out: MOR Ki) [nM]	EC50 [1, 3] [nM]	EC50 [2, 4] [nM]	Ki (delta opioid receptor; DOR Ki) [nM]	Ki (mu opioid receptor; MOR Ki) [nM]	EC50 ([1]; DOR GTPγS EC50, NG108-15 cell membranes) [nM]	EC50 [2] [nM]
Oc1cccc2c1Oc1cc(-c3cnc4ccccc4c3)ccc1C2=C1CC2CCC(C1)N2 [Cpd 109]	2.22	31	94.2	1230	–	–	–	–
CCN(CC)C(=N)c1ccc2c(c1)Oc1ccccc1C2=C1CC2CCC(C1)N2 [Cpd 125]	–	–	–	–	6.3	2050	78.3	> 10000
CCN(CC)C(=N)c1ccc2c(c1)Oc1ccccc1C2=C1CC2CCC(C1)N2 [Cpd 126]	1410	> 10000	> 10000	> 10000	–	–	–	–
